Experimental data published in US6608082B1, “Treatment of erectile dysfunction using isoquinoline compound melanocortin receptor ligands” (Lion Bioscience AG, priority 1998, dated 2003).
“And” between values parts separate entries of the source, which are not always exact repeats. Equal entries are not always repeated.

Tests used:
MCR-3 = target: T1, MCR-3 (Homo sapiens, UniProt P41968); assay: Melanocortin receptor binding assay, competition with 125I-HP 467, HEK 293 cells expressing hMCR-3; details: binding to MCR-3, HEK 293 cells; read-out: MC-3 IC50
T1 construct: expressed in transfected cells; host or cells: HEK 293
Description: All cell culture media and reagents were obtained from GibcoBRL (Gaithersburg Md.), except for COSMIC CALF SERUM (HyClone; Logan Utah). HEK-293 cell lines were transfected with the human MC receptors hMCR-1, hMCR-3, and hMCR-4 (Gantz et al., Biochem. Biophys. Res. Comm. 200:1214-1220 (1994); Gantz et al., J. Biol. Chem. 268:8246-8250 (1993); Gantz et al. J. Biol. Chem. 268:15174-15179 (1993); Haskell-Leuvano et al., Biochem. Biophys. Res. Comm. 204:1137-1142 (1994); each of which is incorporated herein by reference). Vectors for construction of an hMCR-5 expressing cell line were obtained, and a line of HEK 293 cells expressing hMCR-5 was constructed (Gantz, supra, 1994). hMCR-5 has been described previously (Franberg et al., Biochem. Biophys. Res. Commun. 236:489-492 (1997); Chowdhary et al., Cytogenet. Cell Genet. 68:1-2 (1995); Chowdhary et al., Cytogenet. Cell Genet. 68:79-81 (1995), each of which is incorporated herein by reference). HEK 293 cells were maintained in DMEM, 25 mM HEPES, 2 mM glutamine, non-essential amino acids, vitamins, sodium pyruvate, 10% COSMIC CALF SERUM, 100 units/ml penicillin, 100 μg/ml streptomycin and 0.2 mg/ml G418 to maintain selection.
Before assaying, cells were washed once with phosphate buffered saline (“PBS”; without Ca^2+ and Mg^2+), and stripped from the flasks using 0.25% trypsin and 0.5 mM EDTA. Cells were suspended in PBS, 10% COSMIC CALF SERUM and 1 mM CaCl2. Cell suspensions were prepared at a density of 2×10^4 cells/ml for HEK 293 cells expressing hMCR-3, hMCR-4 or hMCR-5, and 1×10^5 cells/ml for HEK 293 cells expressing hMCR-1. Suspensions were placed in a water bath and allowed to warm to 37° C. for 1 hr.
Binding assays were performed in a total volume of 250 μl for HEK 293 cells. Control and test compounds were dissolved in distilled water. ^125I-HP 467 (50,000 dpm) (2000 Ci/mmol) (custom labeled by Amersham; Arlington Heights Ill.) was prepared in 50 mM Tris, pH 7.4, 2 mg/ml BSA, 10 mM CaCl2, 5 mM MgCl2, 2 mM EDTA and added to each tube. To each tube was added 4×10^3 HEK 293 cells expressing hMCR-3, hMCR-4 or hMCR-5, or 2×10^4 cells expressing hMCR-1. Assays were incubated for 2.5 hr at 37° C.
GF/B filter plates were prepared by soaking for at least one hour in 5 mg/ml BSA and 10 mM CaCl2. Assays were filtered using a Brandel 96-well cell harvester (Brandel Inc.; Gaithersburg, Md.). The filters were washed four times with cold 50 mM Tris, pH 7.4, the filter plates were dehydrated for 2 hr and 35 μl of MICROSCINT was added to each well. Filter plates were counted using a Packard Topcount (Packard Instrument Co.) and data analyzed using GraphPad PRISM v2.0 (GraphPad Software Inc.; San Diego Calif.) and Microsoft EXCEL v5.0a (Microsoft Corp.; Redmond Wash.).
To assay isoquinoline compounds, binding assays were performed in duplicate in a 96 well format. HP 467 was prepared in 50 mM Tris, pH 7.4, and ^125I-HP 467 was diluted to give 100,000 dpm per 50 μl. An isoquinoline compound, synthesized as described in Example I, was added to the well in 25 μl aliquots. A 25 μl aliquot of ^125I-HP 467 was added to each well. A 0.2 ml aliquot of suspended cells was added to each well to give the cell numbers indicate above, and the cells were incubated at 37° C. for 2.5 hr. Cells were harvested on GF/B filter plates as described above and counted.
Some of the isoquinoline compounds were further tested for binding to MCR-3 and MCR-5.

IL-10 = assay: Increasing levels of IL-10 in mice (plasma ELISA); assay type: in vivo; details: for % IL-10 Induction, IP 30: 30 μg per mouse; for % IL-10 Induction, IP 300 / % IL-10 Induction, Oral 300: 300 μg per mouse; for % IL-10 Induction, Oral 600: 600 μg per mouse
Procedure, shortened: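 Mice were dosed intraperitoneally at 30, 100 or 300 μg/mouse or orally at 300 or 600 μg/mouse, and plasma was sampled 90 or 105 min post-dose. IL-10 was quantified by sandwich ELISA (rat anti-mouse capture, biotinylated detection antibody, streptavidin-HRP/TMB) against IL-10 standards.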

MCR-1 = target: T2, MCR-1 (Homo sapiens, UniProt Q01726); assay: Melanocortin receptor binding assay, competition with 125I-HP 467, HEK 293 cells expressing hMCR-1; details: for IC50: TRG 2408 and TRG 2409 libraries, inhibition of 125I-HP 467 binding, read-out: MC-1 IC50; for effectiveness as MC receptor ligand: binding to MC receptors, Table 1
T2 construct: expressed in transfected cells; host or cells: HEK 293
Procedure, shortened: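 Intact-cell competition binding, 2.5 hr at 37 °C, in PBS/10% calf serum/1 mM CaCl2; hMCR-4 cells at 4×10^3 per tube, hMCR-1 cells at 2×10^4 per tube. Filtration on BSA/CaCl2-soaked GF/B, cold 50 mM Tris pH 7.4 washes, scintillation count.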

[1] = IP, mouse plasma, 90 or 105 minutes
[2] = mouse plasma, 90 or 105 minutes

T2 sequence (Q01726 whole entry): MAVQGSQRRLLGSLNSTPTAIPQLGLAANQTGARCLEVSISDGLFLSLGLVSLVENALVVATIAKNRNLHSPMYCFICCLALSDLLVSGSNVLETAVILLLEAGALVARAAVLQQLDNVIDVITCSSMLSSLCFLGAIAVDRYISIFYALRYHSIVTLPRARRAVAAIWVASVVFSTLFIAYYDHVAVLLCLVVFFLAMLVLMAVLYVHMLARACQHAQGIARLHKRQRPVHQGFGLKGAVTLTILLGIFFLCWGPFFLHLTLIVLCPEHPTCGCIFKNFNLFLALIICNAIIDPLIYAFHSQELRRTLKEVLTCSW
T1 sequence (P41968 whole entry): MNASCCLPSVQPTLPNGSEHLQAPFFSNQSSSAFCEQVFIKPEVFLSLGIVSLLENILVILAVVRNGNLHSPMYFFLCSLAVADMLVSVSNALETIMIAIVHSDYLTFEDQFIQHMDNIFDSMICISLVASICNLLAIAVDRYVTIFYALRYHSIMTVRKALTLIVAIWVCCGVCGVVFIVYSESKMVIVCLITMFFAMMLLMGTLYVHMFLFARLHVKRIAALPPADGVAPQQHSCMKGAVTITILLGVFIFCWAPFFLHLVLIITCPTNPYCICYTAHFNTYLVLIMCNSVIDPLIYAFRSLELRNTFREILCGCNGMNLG

CCNc1ccc(C2C(CNC3CCCCC3)c3ccccc3CN2CCCCC(CN)NC)cc1 (stereo not shown) [TRG 2408-30]
IC50 (MCR-3): 40.4 µM | % IL-10 Induction, IP 30 (IL-10; [1]): −20 ± 14% | % IL-10 Induction, IP 300 (IL-10; [1]): 24 ± 12% | % IL-10 Induction, Oral 300 (IL-10; [2]): 33 ± 18% | % IL-10 Induction, Oral 600 (IL-10; [2]): 136 ± 41 % | increase of IL-10 (IL-10; administered orally): particularly effective at increasing IL-10 | increase of IL-10 (IL-10; plasma levels in mice): particularly effective at increasing IL-10 | specificity for at least one MC receptor over another MC receptor (MCR-1; MCR-1 versus MCR-4 binding): about 10 fold | IC50 (MCR-1): 1170 nM | effectiveness as MC receptor ligand (MCR-1): particularly effective MC receptor ligands

CCNc1ccc(C2C(CNCc3ccccc3O)c3ccccc3CN2CCCC(CN)NCCc2ccccc2)cc1 (stereo not shown) [TRG 2408-57]
IC50 (MCR-3): 5.17 µM | % IL-10 Induction, IP 30 (IL-10; [1]): 123 ± 30% | % IL-10 Induction, IP 100 (IL-10; IP, 100 μg per mouse, mouse plasma, 90 or 105 minutes): 247 ± 75 % and 225 ± 31 % | % IL-10 Induction, IP 300 (IL-10; [1]): 386 ± 25 % | % IL-10 Induction, Oral 300 (IL-10; [2]): 57 ± 11 % | % IL-10 Induction, Oral 600 (IL-10; [2]): 104 ± 16 % | IC50 (MCR-1): 280 nM | effectiveness as MC receptor ligand (MCR-1): particularly effective MC receptor ligands

CCNc1ccc(C2C(CNC3CCCCC3)c3ccccc3CN2CCCC(CN)NCCc2ccccc2)cc1 (stereo not shown) [TRG 2408-62]
IC50 (MCR-3): 5.71 µM | % IL-10 Induction, IP 30 (IL-10; [1]): 51 ± 15% | % IL-10 Induction, IP 300 (IL-10; [1]): 270 ± 71 % | % IL-10 Induction, Oral 300 (IL-10; [2]): 43 ± 20% | % IL-10 Induction, Oral 600 (IL-10; [2]): 27 ± 10% | IC50 (MCR-1): 120 nM | effectiveness as MC receptor ligand (MCR-1): particularly effective MC receptor ligands
